Experiment [1] concerns the target KRAS G12D (Homo sapiens, UniProt P01116, C118A/G12D). Kind of experiment: KRAS G12D Coupled Nucleotide Exchange Assay. The settings on record: GDP-bound KRAS G12D/C118A, 2 hours pre-incubation, SOS-mediated nucleotide exchange, AlphaScreen. In kind it is biochemical. Here is the method:
The assay plates were then read on a PerkinElmer EnVision Multilabel Reader, using AlphaScreen® technology, and data were analyzed using a 4-parameter logistic model to calculate IC50 values.
A general note: Bead proximity is the source of the signal in Alpha formats.

Experiment [2] deals with KRAS G12D (Homo sapiens, UniProt P01116, G12D). Kind of experiment: KRAS G12D TR-FRET Assay. The settings on record: His-tagged KRAS G12D, biotinylated KRPep-2d, read-out: KRAS G12D Binding IC50. Here is the method:
The plate was incubated for 30 minutes at room temperature. Biotinylated KRPep-2d substrate (Amgen) was diluted to 20 nM in Assay Buffer and 2 uL was added to all wells and incubated for 1 hour at room temperature. Detection Reagent (0.4 nM LANCE Eu-W1024 Anti-6×His (Perkin Elmer AD0401), 5 nM streptavidin-d2 (Cisbio 610SADLA)) was prepared in Assay Buffer, then 4 μL was added to the plate and incubated for 1 hour at room temperature.

A further experiment has as its system p-ERK (AsPC-1 cells). The experiment in a line: Phospho-ERK1/2 MSD Assay. In kind it is cell-based. Here is the method:
Sixteen hours prior to compound treatment, AsPC-1 cells were seeded in 96-well cell culture plates at a density of 25,000 cells/well and incubated at 37° C., 5% CO2. A compound dose-response titration was diluted in growth media, added to appropriate wells of a cell culture plate, and then incubated at 37° C., 5% CO2 for 2 hours. […] Phosphorylation of ERK1/2 in compound-treated lysates was assayed using Phospho-ERK1/2 Whole Cell Lysate kits (Meso Scale Discovery K151DWD) according to the manufacturer's protocol. Assay plates were read on a Meso Scale Discovery Sector Imager 6000, and data were analyzed using a 4-parameter logistic model to calculate IC50 values.

Where [3] appears, read: Homo sapiens, ASPC1, 2 h, read-out: 2 h p-ERK (AsPC-1 cells), IC50 (μM), AsPC-1 cells, 2 hours compound treatment.
Where [4] appears, read: read-out: 2 h p-ERK (AsPC-1 cells), IC50, AsPC-1 cells, 2 hours compound treatment.

Structures are written as SMILES. Read-outs that look alike come from different tables or passages of the source.

A word on the IC50: it is the midpoint of a concentration-inhibition curve.

Sequence of KRAS G12D (Homo sapiens, UniProt P01116, C118A/G12D) (P01116 1-169 isoform P01116-2 G12D/C118A): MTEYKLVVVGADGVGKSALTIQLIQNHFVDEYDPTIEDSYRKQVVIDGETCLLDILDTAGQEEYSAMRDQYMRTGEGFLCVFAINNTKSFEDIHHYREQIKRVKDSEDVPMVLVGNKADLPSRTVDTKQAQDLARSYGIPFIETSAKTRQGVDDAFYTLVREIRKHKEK
Sequence of KRAS G12D (Homo sapiens, UniProt P01116, G12D) (P01116 1-188 isoform P01116-2 G12D): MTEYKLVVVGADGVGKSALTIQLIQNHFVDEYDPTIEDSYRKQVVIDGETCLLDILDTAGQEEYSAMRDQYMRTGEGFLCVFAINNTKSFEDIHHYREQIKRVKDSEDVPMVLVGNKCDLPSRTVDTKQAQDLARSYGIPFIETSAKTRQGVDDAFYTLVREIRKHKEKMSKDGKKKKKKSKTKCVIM

Take `CCc1c(F)ccc2cc(O)cc(-c3ncc4c(N5CC(O)CC6(CC6)C5)nc(OC[C@@]56CCCN5C[C@H](F)C6)nc4c3F)c12` (single isomer, unassigned) [Example 3]: the figures for the IC50 against KRAS G12D [1], at KRAS G12D [2] and in the experiment on p-ERK (AsPC-1 cells) (setting [3]) were 2 nM, 1 nM and 0.034 µM, respectively.
For the compound `CCc1c(F)ccc2cc(O)cc(-c3ncc4c(N5CC(O)CC6(CC6)C5)nc(OC[C@@]56CCCN5C[C@H](F)C6)nc4c3F)c12` (single isomer, unassigned) [Example 4], the IC50 at KRAS G12D [1] came to 3 nM; on KRAS G12D [2], 2 nM.
The matching figures for `CCc1c(F)ccc2cc(O)cc(-c3ncc4c(N5CCCC6(CNC(=O)C6)C5)nc(OC[C@@]56CCCN5C[C@H](F)C6)nc4c3F)c12` (single isomer, unassigned) [Example 7]: 8 nM and 3 nM.
For `CCc1c(F)ccc2cc(O)cc(-c3ncc4c(N5CCCC6(CNC(=O)C6)C5)nc(OC[C@@]56CCCN5C[C@H](F)C6)nc4c3F)c12` (single isomer, unassigned) [Example 8], the half-inhibitory concentration (IC50) against KRAS G12D [1] was 4 nM; at KRAS G12D [2] it was 2 nM; in the experiment on p-ERK (AsPC-1 cells) (setting [3]), 0.252 µM.
With `CCc1c(F)ccc2cc(O)cc(-c3ncc4c(N5CCCC6(CC(=O)N6)C5)nc(OC[C@@]56CCCN5C[C@H](F)C6)nc4c3F)c12` (single isomer, unassigned) [Example 9], the half-maximal inhibitory concentration (IC50) was found to be 5 nM on KRAS G12D [1], 2 nM on KRAS G12D [2] and 1.99 µM in the experiment on p-ERK (AsPC-1 cells) (setting [4]).
The matching figures for `CCc1c(F)ccc2cc(O)cc(-c3ncc4c(N5CCCC6(CC(=O)N6)C5)nc(OC[C@@]56CCCN5C[C@H](F)C6)nc4c3F)c12` (single isomer, unassigned) [Example 10]: 2 nM, 1 nM and 0.044 µM.
On to `CCc1c(F)ccc2cc(O)cc(-c3ncc4c(N5CCCC6(CCO6)C5)nc(OC[C@@]56CCCN5C[C@H](F)C6)nc4c3F)c12` (single isomer, unassigned) [Example 21], for which the IC50 in the experiment on p-ERK (AsPC-1 cells) (setting [4]) came to 0.003 µM.
As for `CCc1c(F)ccc2cc(O)cc(-c3ncc4c(N5CCCC6(CCO6)C5)nc(OC[C@@]56CCCN5C[C@H](F)C6)nc4c3F)c12` (single isomer, unassigned) [Example 22], the IC50 in the experiment with p-ERK (AsPC-1 cells) (setting [4]) was determined as 0.252 µM.
As for `CCc1c(F)ccc2cc(O)cc(-c3ncc4c(N5CCCC6(CNC6=O)C5)nc(OC[C@@]56CCCN5C[C@H](F)C6)nc4c3F)c12` (single isomer, unassigned) [Example 46], the IC50 against KRAS G12D [1] amounted to 65 nM; at KRAS G12D [2], 59 nM.
Taken in the same sequence, the figures for `CCc1c(F)ccc2cc(O)cc(-c3ncc4c(N5CCCC6(CCC6O)C5)nc(OC[C@@]56CCCN5C[C@H](F)C6)nc4c3F)c12` (single isomer, unassigned) [Example 48] were 54 nM and 36 nM.
With `CCc1c(F)ccc2cc(O)cc(-c3ncc4c(N5CCCC6(CC(O)C6)C5)nc(OC[C@@]56CCCN5C[C@H](F)C6)nc4c3F)c12` (single isomer, unassigned) [Example 54], in the experiment on p-ERK (AsPC-1 cells) (setting [4]), the IC50 is 0.008 µM.
Take `CCc1c(F)ccc2cc(O)cc(-c3ncc4c(N5CCCC6(CC(O)C6)C5)nc(OC[C@@]56CCCN5C[C@H](F)C6)nc4c3F)c12` (single isomer, unassigned) [Example 55]: the IC50 in the experiment with p-ERK (AsPC-1 cells) (setting [4]) stood at 0.078 µM.
On to `CCc1c(F)ccc2cc(O)cc(-c3ncc4c(N5CCCC6(CCO6)C5)nc(OC[C@@]56CCCN5C[C@H](F)C6)nc4c3C)c12` (single isomer, unassigned) [Example 62], for which the IC50 at KRAS G12D [1] is 42 nM; on KRAS G12D [2], 68 nM.
Taken in the same sequence, the figures for `CCc1c(F)ccc2cccc(-c3ncc4c(N5CCCC6(CNC(=O)O6)C5)nc(OC[C@@]56CCCN5C[C@H](F)C6)nc4c3F)c12` (single isomer, unassigned) [Example 64] were 129 nM and 305 nM.
The matching figures for `CCc1c(F)ccc2cc(O)cc(-c3ncc4c(N5CCCC6(CCC(=O)O6)C5)nc(OC[C@@]56CCCN5C[C@H](F)C6)nc4c3F)c12` (single isomer, unassigned) [Example 65]: 42 nM and 74 nM.
Regarding `CCc1c(F)ccc2cc(O)cc(-c3ncc4c(N5CCOCC6(COC6)C5)nc(OCC56CCCN5C[C@H](F)C6)nc4c3F)c12` (stereo in doubt) [Example 50, 5-Ethyl-6-fluoro-4-(8-fluoro-2-(((2R,7aS)-2-fluorotetrahydro-1H-pyrrolizin-7a(5H)-yl)methoxy)-4-(2,6-dioxa-9-azaspiro[3.6]decan-9-yl)pyrido[4,3-d]pyrimidin-7-yl)naphthalen-2-ol], the IC50 on KRAS G12D [1] worked out at 50 nM; at KRAS G12D [2], 56 nM.
Taken in the same sequence, the figures for `CCc1c(F)ccc2cc(O)cc(-c3ncc4c(N5CCC6(CCCS6(=O)=O)C5)nc(OCC56CCCN5C[C@H](F)C6)nc4c3F)c12` (stereo in doubt) [Example 51, 7-(7-(8-Ethyl-7-fluoro-3-hydroxynaphthalen-1-yl)-8-fluoro-2-(((2R,7aS)-2-fluorotetrahydro-1H-pyrrolizin-7a(5H)-yl)methoxy)pyrido[4,3-d]pyrimidin-4-yl)-1-thia-7-azaspiro[4.4]nonane 1,1-dioxide] were 13 nM and 17 nM.
As to `CCc1c(F)ccc2cc(O)cc(-c3ncc4c(N5CCCC6(CCN6)C5)nc(OC[C@@]56CCCN5C[C@H](F)C6)nc4c3F)c12` (stereo partly drawn) [Example 5, 5-Ethyl-6-fluoro-4-(8-fluoro-2-(((2R,7aS)-2-fluorotetrahydro-1H-pyrrolizin-7a(5H)-yl)methoxy)-4-(1,6-diazaspiro[3.5]nonan-6-yl)pyrido[4,3-d]pyrimidin-7-yl)naphthalen-2-ol], the IC50 at KRAS G12D [1] worked out at 17 nM; at KRAS G12D [2], 40 nM.
Taken in the same sequence, the figures for `CCc1c(F)ccc2cc(O)cc(-c3ncc4c(N5CCCC6(COC6)C5)nc(OC[C@@]56CCCN5C[C@H](F)C6)nc4c3F)c12` [Example 20, 5-Ethyl-6-fluoro-4-(8-fluoro-2-(((2R,7aS)-2-fluorotetrahydro-1H-pyrrolizin-7a(5H)-yl)methoxy)-4-(2-oxa-6-azaspiro[3.5]nonan-6-yl)pyrido[4,3-d]pyrimidin-7-yl)naphthalen-2-ol] were 3 nM and 2 nM.
With `CCc1c(F)ccc2cc(O)cc(-c3ncc4c(N5CCOC6(CCC6)C5)nc(OC[C@@]56CCCN5C[C@H](F)C6)nc4c3F)c12` [Example 31, 5-Ethyl-6-fluoro-4-(8-fluoro-2-(((2R,7aS)-2-fluorotetrahydro-1H-pyrrolizin-7a(5H)-yl)methoxy)-4-(5-oxa-8-azaspiro[3.5]nonan-8-yl)pyrido[4,3-d]pyrimidin-7-yl)naphthalen-2-ol], the IC50 on KRAS G12D [1] was 28 nM; on KRAS G12D [2] it was 27 nM.
The matching figures for `CCc1c(F)ccc2cccc(-c3ncc4c(N5CCCC6(CNC6=O)C5)nc(OC[C@@]56CCCN5C[C@H](F)C6)nc4c3F)c12` (stereo partly drawn) [Example 32, 6-(7-(8-Ethyl-7-fluoronaphthalen-1-yl)-8-fluoro-2-(((2R,7aS)-2-fluorotetrahydro-1H-pyrrolizin-7a(5H)-yl)methoxy)pyrido[4,3-d]pyrimidin-4-yl)-2,6-diazaspiro[3.5]nonan-1-one]: 5 nM and 4 nM.
As for `CCc1c(F)ccc2cc(O)cc(-c3ncc4c(N5CCCC6(CNC6)C5)nc(OC[C@@]56CCCN5C[C@H](F)C6)nc4c3F)c12` [Example 38, 5-Ethyl-6-fluoro-4-(8-fluoro-2-(((2R,7aS)-2-fluorotetrahydro-1H-pyrrolizin-7a(5H)-yl)methoxy)-4-(2,6-diazaspiro[3.5]nonan-6-yl)pyrido[4,3-d]pyrimidin-7-yl)naphthalen-2-ol], the IC50 at KRAS G12D [1] was 33 nM; on KRAS G12D [2], 31 nM.
Consider `CCc1c(F)ccc2cc(O)cc(-c3ncc4c(N5CCCC6(CCS6(=O)=O)C5)nc(OC[C@@]56CCCN5C[C@H](F)C6)nc4c3F)c12` (some centres unmarked) [Example 43], for which the IC50 at KRAS G12D [1] was 8 nM; on KRAS G12D [2] it was 12 nM.
Taken in the same sequence, the figures for `CCc1c(F)ccc2cc(O)cc(-c3ncc4c(N5CCCC6(CCNC6=O)C5)nc(OC[C@@]56CCCN5C[C@H](F)C6)nc4c3F)c12` (stereo partly drawn) [Example 47, 7-(7-(8-Ethyl-7-fluoro-3-hydroxynaphthalen-1-yl)-8-fluoro-2-(((2R,7aS)-2-fluorotetrahydro-1H-pyrrolizin-7a(5H)-yl)methoxy)pyrido[4,3-d]pyrimidin-4-yl)-2,7-diazaspir[4.5]decan-1-one] were 24 nM and 51 nM.
Taken in the same sequence, the figures for `CCc1c(F)ccc2cc(O)cc(-c3ncc4c(N5CCCC6(C5)CN(S(C)(=O)=O)C6)nc(OC[C@@]56CCCN5C[C@H](F)C6)nc4c3F)c12` [Example 52, 5-Ethyl-6-fluoro-4-(8-fluoro-2-(((2R,7aS)-2-fluorotetrahydro-1H-pyrrolizin-7a(5H)-yl)methoxy)-4-(2-(methylsulfonyl)-2,6-diazaspiro[3.5]nonan-6-yl)pyrido[4,3-d]pyrimidin-7-yl)naphthalen-2-ol] were 6 nM and 6 nM.

These data come from US20240417412A1, “HETEROCYCLIC COMPOUNDS AND METHODS OF USE” (AMGEN INC., priority 2022, published 2024).
